US20040186166A1, “Cannabinoid analogs as peroxisome proliferator activated nuclear receptor gamma activators” (priority 2002, published 2004)

Experiments:
PPARδ = target: T1, PPARδ (Mus musculus, UniProt P35396); assay: PPRE-TK-LUC reporter transient transfection, PPARδ; assay type: cell-based; conditions: 20 μM AJA (FIG. 3C)
T1 construct: expressed in transfected cells; host or cells: HEK293 / HEK293T
T1 sequence (P35396 1-440): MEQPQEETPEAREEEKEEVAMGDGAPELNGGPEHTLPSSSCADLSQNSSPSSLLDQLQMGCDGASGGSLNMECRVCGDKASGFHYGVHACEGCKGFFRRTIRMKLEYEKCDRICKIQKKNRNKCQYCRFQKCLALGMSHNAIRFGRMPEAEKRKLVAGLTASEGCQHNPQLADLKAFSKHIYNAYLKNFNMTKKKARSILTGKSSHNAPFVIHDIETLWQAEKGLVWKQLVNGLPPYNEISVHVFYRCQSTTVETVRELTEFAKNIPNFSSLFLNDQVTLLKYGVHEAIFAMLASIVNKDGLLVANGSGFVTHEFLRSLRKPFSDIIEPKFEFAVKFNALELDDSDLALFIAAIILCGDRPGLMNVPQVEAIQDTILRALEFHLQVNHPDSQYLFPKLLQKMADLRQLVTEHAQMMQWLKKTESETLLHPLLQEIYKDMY
Procedure: For PPARγ activation assay, HEK293 cells were plated in 12-well cell culture plates and maintained in Dulbecco's modified Eagle's medium (DMEM) supplemented with 10% fetal bovine serum (FBS) at 37° C. under 5% CO2. Cells were changed to phenol red-free DMEM supplemented with 10% charcoal-stripped fetal bovine serum 3 hours before transfection by a standard calcium-phosphate precipitation method. Twelve hours after transfection, the cells were washed with phosphate-buffered saline (PBS) and fed again with fresh medium containing the indicated concentrations of compounds. After 36 hours, cells were harvested for β-galactosidase and luciferase activities as described previously (Li et al., Proc Natl Acad Sci USA 94:8479-84, 1997). The average normalized luciferase activity was determined via triplicate experiments. For IL-8 promoter assay, HeLa cells were maintained and transfected in the same way as described above. After transfection, cells were recovered for 4 hours before treatment with AJA, GW347845, or solvent. After 3-4 hours, cells were treated with or without 25 nM of phorbol myristate acetate (PMA) for 24 hours.
In an effort to confirm that AJA activates PPARγ selectively, the ability of AJA to activate PPARα and PPARδ was analyzed in a similar transient transfection assay.

[1] = target: T2, PPARγ / GST-RAC3 (amino acids 613-752) (Mus musculus, UniProt P37238); assay: GST pull-down assay, PPARγ with GST-RAC3; assay type: binding; conditions: 20 μM AJA
T2 construct: made in house; host or cells: PPARγ1: reticulocyte lysate; GST-RAC3: E. coli BL21, kept on glutathione-Sepharose beads
T2 sequence (P37238 1-475 isoform P37238-2): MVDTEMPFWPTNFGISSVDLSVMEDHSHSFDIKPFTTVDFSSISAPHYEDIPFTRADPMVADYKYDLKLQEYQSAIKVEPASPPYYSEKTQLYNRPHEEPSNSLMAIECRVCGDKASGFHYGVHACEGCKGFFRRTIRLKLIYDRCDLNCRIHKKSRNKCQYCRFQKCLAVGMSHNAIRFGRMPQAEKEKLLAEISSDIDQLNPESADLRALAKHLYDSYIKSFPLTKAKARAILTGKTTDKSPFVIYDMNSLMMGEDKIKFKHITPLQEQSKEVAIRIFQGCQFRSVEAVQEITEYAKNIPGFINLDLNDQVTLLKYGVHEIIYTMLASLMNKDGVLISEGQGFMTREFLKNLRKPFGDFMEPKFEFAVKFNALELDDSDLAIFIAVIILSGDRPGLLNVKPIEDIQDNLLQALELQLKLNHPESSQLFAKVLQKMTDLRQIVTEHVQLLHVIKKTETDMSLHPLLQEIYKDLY
T2 sequence (Q9Y6Q9 613-752 partner limits assumed): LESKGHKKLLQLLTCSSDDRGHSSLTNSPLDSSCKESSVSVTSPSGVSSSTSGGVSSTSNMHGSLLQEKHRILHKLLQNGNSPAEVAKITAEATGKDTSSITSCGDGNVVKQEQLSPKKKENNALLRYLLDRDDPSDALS
Procedure: The glutathione S-transferase (GST)-DRIP205 (amino acid 527-970) and GST-RAC3 RID (amino acid 613-752) fusion proteins were expressed in BL21 cells by induction with 0.1 mM isopropyl-β-D-thiogalactopyranoside (IPTG) at room temperature for 4 hours. The bacterial pellet was resuspended in STE buffer (150 mM NaCl, 10 mM Tris pH 8.0, 1 mM EDTA), containing 5 mM dithiothreitol (DTT), 1 mM phenylmethlsulfonyl fluoride (PMSF) and 1.5% Sarkosyl. The cell suspension was sonicated and centrifuged at 7400 rpm at 4° C. for 30 minutes. The supernatant was isolated and 0.02% Triton-X 100 was added, and the mixture was then incubated with 1 ml 50% slurry of glutathione-Sepharose beads on a rotator at 4° C. for 30 minutes. The beads were spun down at 3000 rpm for 10 minutes, the supernatant was removed, and the beads were suspended in 1 ml cold PBS.
Approximately 5 μg of GST-DRIP205 or GST-RAC3 bound on glutathione-Sepharose beads and 4 μl ^35S-methionine-labeled mPPARγ1 were incubated with the indicated concentrations of AJA, GW347845, or vehicle alone in H buffer (20 mM Hepes [pH 7.7], 75 mM KCl, 0.1 mM EDTA, 2.5 mM MgCl2, 0.05% NP40, 0.1 mM methionine, 1 mM DTT) containing 1 mg/ml bovine serum albumin (BSA) on a rotator at 4° C. overnight. After three washes with cold PBS, the bound protein was eluted in SDS sample buffer and boiled for 10 min before SDS-PAGE and autoradiography. […]

[2] = mouse tail clip assay, cited from earlier work
[3] = IL-1β and TNFα injected into subcutaneous air pouches, mice; cited from earlier work
[4] = adjuvant-induced poly-arthritis, rats; cited from earlier work

SMILES: CCCCCCC(C)(C)c1cc(O)c2c(c1)OC(C)(C)[C@@H]1CC=C(C(=O)O)C[C@@H]21 [AJA, dimethylheptyl-THC-11-oic acid]
- activation of PPARδ (PPARδ): neither did AJA activate PPARδ
- binding of PPARγ to GST-RAC3 [1]: increased binding
- analgesic function ([2]; Dajani et al. 1999): potent analgesic function comparable with morphine
- duration of analgesic effect ([2]; compared with morphine): lasted even longer than morphin
- acute inflammation [3]: suppress
- chronic joint inflammation [4]: suppress
